According to the supplement of paper PMC10307832:

Experiments:
Test in all cases: relative viability (nuclei count vs DMSO), 5 days (fraction); higher = more cells survive
YM155 + Crizotinib = compound: COCC[n+]1c2c(n(Cc3cnccn3)c1C)C(=O)c1ccccc1C2=O [YM155] + C[C@@H](Oc1cc(-c2cnn(C3CCNCC3)c2)cnc1N)c1c(Cl)ccc(F)c1Cl [Crizotinib] (partner 1 µM)
Procedure, shortened: (§1)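 A single step with final 0.05% Triton X-100, 1% formaldehyde and 1 ug/ml Hoechst fixed the cells and stained nuclei 5 days after treatment. Lung cancer cell lines in 1536-well plates had been treated by pin tool the day after seeding with one drug alone or a fixed anchor-drug dose plus five library-drug doses (not always all listed) in √10 steps, and nuclei were counted on 4× images. Relative viability is the ratio of nuclei in treated wells to nuclei in vehicle wells, taken as the median of duplicate plates.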

Quizartinib + Dasatinib = compound: CC(C)(C)c1cc(NC(=O)Nc2ccc(-c3cn4c(n3)sc3cc(OCCN5CCOCC5)ccc34)cc2)no1 [Quizartinib] + Cc1nc(Nc2ncc(C(=O)Nc3c(C)cccc3Cl)s2)cc(N2CCN(CCO)CC2)n1 [Dasatinib] (partner 0.075 µM)
Procedure, shortened: as §1

YM155 + Olaparib = compound: COCC[n+]1c2c(n(Cc3cnccn3)c1C)C(=O)c1ccccc1C2=O [YM155] + O=C(c1cc(Cc2n[nH]c(=O)c3ccccc23)ccc1F)N1CCN(C(=O)C2CC2)CC1 [Olaparib] (partner 8 µM)
Procedure, shortened: as §1

Quizartinib + Lapatinib = compound: CC(C)(C)c1cc(NC(=O)Nc2ccc(-c3cn4c(n3)sc3cc(OCCN5CCOCC5)ccc34)cc2)no1 [Quizartinib] + CS(=O)(=O)CCNCc1ccc(-c2ccc3ncnc(Nc4ccc(OCc5cccc(F)c5)c(Cl)c4)c3c2)o1 [Lapatinib] (partner 2 µM)
Procedure, shortened: as §1

Row | Cell Line | relative viability (YM155 + Crizotinib; first compound 0.002 µM) | relative viability (YM155 + Crizotinib; first compound 0.006325 µM) | relative viability (YM155 + Crizotinib; first compound 0.02 µM) | relative viability (YM155 + Crizotinib; first compound 0.06325 µM) | relative viability (Quizartinib + Dasatinib; first compound 0.001 µM) | relative viability (Quizartinib + Dasatinib; first compound 0.003162 µM) | relative viability (Quizartinib + Dasatinib; first compound 0.01 µM) | relative viability (Quizartinib + Dasatinib; first compound 0.03162 µM) | relative viability (Quizartinib + Dasatinib; first compound 0.1 µM) | relative viability (YM155 + Olaparib; first compound 0.002 µM) | relative viability (YM155 + Olaparib; first compound 0.006325 µM) | relative viability (YM155 + Olaparib; first compound 0.02 µM) | relative viability (YM155 + Olaparib; first compound 0.06325 µM) | relative viability (Quizartinib + Lapatinib; first compound 0.001 µM) | relative viability (Quizartinib + Lapatinib; first compound 0.003162 µM) | relative viability (Quizartinib + Lapatinib; first compound 0.01 µM) | relative viability (Quizartinib + Lapatinib; first compound 0.03162 µM) | relative viability (Quizartinib + Lapatinib; first compound 0.1 µM)
1 | 201T | 0.98 | 1 | 1.01 | 1.03 | 0.588 | 0.563 | 0.621 | 0.574 | 0.57 | 0.813 | 0.845 | 0.826 | 0.874 | 1.09 | 1.04 | 1.07 | 1.06 | 1.05
2 | A549 | 0.717 | 0.592 | 0.654 | 0.142 |  |  |  |  |  | 0.232 | 0.313 | 0.376 | 0.324 | 0.919 | 0.912 | 0.998 | 0.59 | 0.99
3 | A-427 | 0.959 | 0.839 | 0.89 | 0.865 |  | 0.718 | 0.706 | 0.657 | 0.663 | 0.735 | 0.556 | 0.714 | 0.294 | 0.714 | 0.938 | 1.04 | 0.998 | 0.986
4 | ABC-1 | 0.844 | 0.341 | 0.166 | 0.15 | 0.578 | 0.572 | 0.661 |  | 0.502 |  | 0.51 | 0.28 | 0.261 | 1.11 |  | 1.17 | 1.02 | 1.29
5 | BEN | 0.873 | 0.987 | 0.863 | 1.05 | 0.292 | 0.335 | 0.347 | 0.257 | 0.318 | 0.994 | 1.06 | 1.11 | 1.08 | 0.473 | 0.661 | 0.579 | 0.667 | 0.747
6 | CAL-12T | 0.608 | 0.696 | 0.551 | 0.409 | 0.382 | 0.489 | 0.535 | 0.388 | 0.328 | 0.782 | 0.735 | 0.625 | 0.331 | 0.587 | 0.716 | 0.667 | 0.687 | 0.795
7 | Calu-6 | 0.728 | 0.776 | 0.349 | 0.135 |  |  |  |  |  | 0.544 | 0.586 | 0.294 | 0.129 | 1.02 | 0.986 | 1.15 | 0.815 | 1.09
8 | ChaGo-K-1 | 1.1 | 1.06 | 1.17 | 0.784 | 0.595 | 0.543 | 0.588 | 0.606 | 0.56 | 0.364 | 0.38 | 0.43 | 0.385 |  |  |  |  | 
9 | EBC-1 | 0.186 | 0.193 | 0.206 | 0.202 |  |  |  |  |  | 0.819 | 0.743 | 0.799 | 0.622 | 0.23 | 0.209 | 0.202 | 0.207 | 0.197
10 | HCC-44 | 0.805 | 0.755 | 0.845 | 0.776 |  |  |  |  |  | 0.969 | 1.03 | 0.992 | 1.04 | 0.776 | 1.02 | 0.991 | 1.09 | 0.938
11 | IA-LM | 0.825 | 0.766 | 0.685 | 0.548 |  |  |  |  |  | 0.836 | 0.891 | 0.879 | 0.642 | 0.983 | 0.718 | 0.86 |  | 0.719
12 | LCLC-103H | 0.971 | 1.03 | 1.03 | 1 | 0.461 | 0.454 | 0.402 | 0.557 | 0.487 | 0.738 | 0.845 | 0.77 | 0.801 |  |  |  |  | 
13 | NCI-H441 | 0.676 | 0.623 | 0.694 | 0.509 | 0.617 | 0.571 | 0.765 |  | 0.771 | 0.597 | 0.524 | 0.518 | 0.299 |  |  |  |  | 
14 | NCI-H522 |  |  |  |  | 0.861 | 0.861 | 1.11 | 0.794 | 0.882 | 0.727 | 0.646 | 0.594 | 0.612 |  |  |  |  | 
15 | NCI-H1299 | 0.92 | 0.953 | 0.951 | 0.767 |  |  |  |  |  | 1 | 0.998 | 0.971 | 0.875 | 0.983 | 0.932 | 0.956 | 0.922 | 0.903
16 | NCI-H1395 |  |  |  |  | 0.384 | 0.418 | 0.388 | 0.421 | 0.413 | 0.489 | 0.457 | 0.46 | 0.456 | 0.992 | 0.941 | 0.883 | 0.842 | 1.2
17 | NCI-H1563 | 0.915 | 0.802 | 0.838 | 0.886 | 0.523 | 0.505 | 0.458 | 0.468 | 0.493 |  |  |  |  | 0.697 | 0.824 | 0.935 |  | 0.897
18 | NCI-H1648 |  |  |  |  |  |  |  |  |  |  | 1.06 | 0.6 | 0.762 |  |  |  |  | 
19 | NCI-H1703 | 0.612 | 0.13 | 0.459 | 0.175 |  |  |  |  |  | 0.499 | 0.403 | 0.346 | 0.387 | 1.18 | 0.432 | 0.379 | 0.216 | 0.315
20 | NCI-H1793 |  |  |  |  | 0.357 | 0.381 | 0.356 | 0.392 | 0.327 | 0.847 | 0.824 | 0.91 | 0.575 | 0.533 | 0.743 | 0.82 | 0.899 | 0.795
21 | NCI-H2342 |  |  |  |  | 0.31 | 0.314 | 0.308 | 0.285 | 0.316 | 0.356 | 0.386 | 0.473 | 0.445 |  |  |  |  | 
22 | SW 900 |  |  |  |  | 0.557 | 0.294 |  | 0.563 | 0.616 |  | 0.788 | 0.848 | 0.808 |  |  |  |  | 
